Test results taken from patent US5474988A, “5-phenylpyrrolo-1,4-benzoxazine and 5-phenylpyrrolo-1,4-benzothiazine compounds, process and intermediates for their production and pharmaceutical compositions containing them” (Kali-Chemie Pharma GmbH, priority 1993, dated 1995).

Assays:
5-lipoxygenase [1] = molecular target: T1, 5-lipoxygenase (Cavia porcellus, UniProt A0A286X958); assay: inhibitory activity on free 5-lipoxygenase concentrated from peritoneal PMNs of the guinea-pig (5-HETE formation); assay type: biochemical; conditions: 10^-5 mole/liter; guinea-pig 5-LO, 37° C.; read-out: In vitro % inhibitory activity on 5-HETE formation caused by free 5-LO
T1 construct: The 5-LO was concentrated in a known manner from PMNs of male Dunkin-Hartley guinea-pigs; endogenous in cells; host or cells: peritoneal PMNs of male Dunkin-Hartley guinea-pigs, homogenized; 10,000 x g supernatant used as enzyme solution
T1 sequence (A0A286X958 1-674): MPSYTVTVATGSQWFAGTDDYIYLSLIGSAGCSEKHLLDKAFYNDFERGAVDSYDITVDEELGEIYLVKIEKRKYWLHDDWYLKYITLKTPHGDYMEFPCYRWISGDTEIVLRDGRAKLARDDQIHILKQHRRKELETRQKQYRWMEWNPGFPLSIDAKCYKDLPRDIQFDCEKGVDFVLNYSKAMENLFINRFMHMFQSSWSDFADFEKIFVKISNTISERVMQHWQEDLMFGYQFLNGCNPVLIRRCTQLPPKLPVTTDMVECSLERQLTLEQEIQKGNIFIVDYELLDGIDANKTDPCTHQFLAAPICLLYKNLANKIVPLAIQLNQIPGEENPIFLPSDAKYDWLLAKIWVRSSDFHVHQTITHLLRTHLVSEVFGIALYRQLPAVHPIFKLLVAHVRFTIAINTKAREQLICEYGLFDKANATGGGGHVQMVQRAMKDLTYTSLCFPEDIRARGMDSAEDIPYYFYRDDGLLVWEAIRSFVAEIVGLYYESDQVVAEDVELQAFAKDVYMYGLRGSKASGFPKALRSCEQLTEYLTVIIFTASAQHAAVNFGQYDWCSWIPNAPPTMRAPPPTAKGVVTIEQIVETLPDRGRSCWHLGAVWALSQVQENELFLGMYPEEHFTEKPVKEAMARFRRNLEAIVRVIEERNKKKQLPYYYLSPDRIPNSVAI
Text: 4b. In vitro determination of inhibitory activity on 5-lipoxygenase concentrated from peritoneal PMNs of the guinea-pig.
An inhibition of 5-lipoxygenase can be caused by direct inhibitory action of the substances on the enzyme and/or by interference with the activation of the enzyme. While in test 4a the 5-lipoxygenase inhibition of the substances was investigated in rat PMN cells, in test 4b the inhibitory activity of the substances was investigated on free 5-LO concentrated from guinea-pig PMN cells according to the method of D. Aharony et al., J. Biol. Chem. 261 (1986), 11512-11519 (1986).
The 5-LO was concentrated in a known manner from PMNs of male Dunkin-Hartley guinea-pigs (body weight 400 to 500 g) as follows. 10 ml of a solution containing 27.9 g/l of sodium thioglycolate were injected i.p. into the animals in order to induce the PMN invasion as a result of this inflammatory stimulus. After 22 hours, the animals were sacrificed by lethal ether anaesthesia. 70 ml of HBSS without Ca^++ and Mg^++ ions and containing 0.2% by weight of sodium citrate were then injected into the abdominal cavity. The cell suspension (>80% of the cells are PMNs) was withdrawn from the abdominal cavity, filtered through a cheese-making filter cloth, and washed twice with a 50 mM potassium phosphate buffer solution of pH 7.4, which contained 0.5 mM ethylenediaminetetraacetic acid, 1% by weight of gelatine and 20 μM indomethacin. The cells were resuspended, and the PMN suspension containing 10^8 cells/ml was homogenized three times for 15 seconds each in an ice-bath in a homogenizer of the Labsonic™ type set at high speed. The resulting suspension was centrifuged at 4° C. (15 minutes at 10,000×g). The supernatant liquid was used for the investigation as a solution of the free 5-LO enzyme.
The experiments were carried out at 37° C. for 7 minutes using 0.625 ml samples of this enzyme solution. For the experiments, the enzyme solution (=equivalent of 2.5×10^7 cells), 0.5 mM glutathione, 1 mM ATP and 0.3 mM calcium chloride were added to test tubes. […] of the test substance were added to the samples dissolved in sufficient dimethylformamide such that the dimethylformamide concentration in each test tube is 0.5%. Only dimethylformamide was added to the control samples. After 2 minutes, the formation of 5-(S)-hydroxy-6,8,11,14-eicosatetraenoic acid (=[…]) was initiated by addition 10 μM arachidonic acid. After 5 minutes, the reaction was terminated by addition of 0.625 ml of a mixture of methyl acetate/methanol/0.2 m citric acid 15:2:0.5 v/v/v. 5-HETE was extracted twice using this solvent mixture. The 5-HETE-containing phases were combined and evaporated to dryness under a nitrogen atmosphere. The residue was taken up in a mixture of methanol/water/acetic acid 75:21:0.02 v/v/v having a pH of 5.7, and the solution was investigated for its content of 5-HETE by means of reverse phase HPLC. To accomplish this, a […] silanized silica gel column (Hichrom® ODS2, 250×4.6 mm) was employed as the adsorbent and a mixture of methanol/water/acetic acid 75:21:0.02 adjusted to pH 5.7 with ammonia and having a flow rate of 1 ml/min was used as the eluent. 5-HETE, which was eluted as a single peak after 20 minutes, was identified by comparison with standard solutions eluted at the same time and determined using a UV light detector at a wavelength of 235 nm. Quantitative determination was carried out by comparison of the peak area obtained with peak areas occurring in the calibrated standard solutions. From the 5-HETE contents of the samples determined, the inhibitory activity of the test substances was calculated in % inhibition of 5-HETE synthesis in comparison to the control samples containing no test substance.

5-lipoxygenase [2] = assay: inhibition of 5-lipoxygenase activity in polymorphonuclear rat leucocytes (LTB4 formation); assay type: cell-based; conditions: 10^-5 mol/l; 22° C.
Text: 4. In vitro determination of 5-lipoxygenase inhibition. 4a. In vitro determination of inhibition of 5-lipoxygenase activity in polymorphonuclear rat leucocytes. Arachidonic acid contained in cell membranes is released after activiation of the polymorphonuclear leucocytes (=PMN). During the course of this, under the action of the enzyme 5-lipoxygenase (=5-LO) arachidonic acid metabolites are synthesized which can be converted to leucotriene B4 (=LTB4) by LTA4 hydrolase. LTB4 is a principal metabolite of the arachidonic acid metabolism taking place on activation of the enzyme 5-LO by the inflammatory stimulus in the cell membrane. In in vitro systems, this metabolite is secreted from PMNs. […] To accomplish this, the content of LTB4 in a culture medium of rat peritoneal PMNs was determined after stimulation by calcimycin (=calcium-ionophore A23187) such as described by […] et al., Can. J. Physiol. Pharmacol. 67 (1989), 17. A cell suspension containing peritoneal PMNs of male Sprague-Dawley rats (body weight 200 to 250 g) was obtained in a known manner as follows: 6 ml of a solution containing 27.9 g/l of sodium thioglycolate were injected i.p. into the animals in order to induce the PMN invasion due to this inflammatory stimulus. After 22 hours, the animals were sacrificed by means of lethal ether anaesthesia. 20 ml of a Hank's salt solution (=Hank's Balanced Salt Solution=HBSS), but without Ca^++ and Mg^++ ions and with 0.2% by weight of sodium citrate, were then injected into the abdominal cavity. The suspension of accumulated cells was removed from the abdominal cavity and the cells were separated by centrifugation (10 minutes at 400×g). The cells were purified by repeated centrifugation in the presence of Ficoll-Paque®, (=metrizoic acid preparation, […], manufacturer Pharmacia), then washed twice with HBSS containing Ca^++ and Mg^++ ions and resuspended in HBSS containing Ca^ ++ and Mg^++ ions and buffered with 10 mM HEPES (=hydroxyethylpiperazinoethanesulfonic acid). In order to carry out the tests, samples of 0.7 ml of the PMN suspension (=0.5×10^6 cells) in each case were incubated for 15 minutes at 22° C. in plastic tubes containing 10 μM of the test substance in dimethylformamide or, as a control experiment, only containing dimethylformamide. The LTB4 synthesis was initiated in the samples by addition of calcimycin (final concentration 5 μm), and the samples were incubated for 10 minutes at 22° C. Only solvent was added to blank control samples. After 10 minutes, the reaction was terminated by addition of 0.3 ml of cold methanol. The samples were kept for 1 hour at 4° C. and then centrifuged (5 minutes at 10,000×g). The supernatant liquid was investigated to determine its LTB4 content by means of reverse phase high-pressure liquid chromatography (=reverse phase HPLC). […] The LTB4 was identified by comparison with authentic standard solutions eluting at the same time and determined at a wavelength of 270 nm. The LTB4 contents are determined from comparison with calibrated standard solutions, and from this the inhibitory activity of the test substances was calculated in % inhibition of the LTB4 synthesis in comparison with the control samples containing no test substance.

Row | SMILES | inhibition at 10 µM (5-lipoxygenase [1]) [%] | In vitro inhibitory activity on LTB4 formation in rat PMNs stimulated by calcium ionophore A23187 (5-lipoxygenase [2]) [%]
1 | Cc1c(-c2ccc(O)cc2)n2c3c(cccc13)OC(CCC(=O)N1CCN(c3ccccn3)CC1)C2 (stereo not shown) [Example 36] | 65 | 89
2 | Cc1cc(-c2c(C)c3cccc4c3n2CC(CCN2CCC(N(C)c3nccc(=O)[nH]3)CC2)O4)cc(C)c1O (stereo not shown) [Example 40] | 56 | 82
3 | COc1cc(-c2c(C)c3cccc4c3n2CC(CCCCN2CCN(c3cc(C)ccn3)CC2)S4)cc(C)c1O (stereo not shown) [Example 64] | 74 | –
4 | Cc1ccnc(N2CCN(CCC3Cn4c(-c5ccc(O)cc5)c(C)c5cccc(c54)S3)CC2)c1 (stereo not shown) [Example 21] | 30 | 42
5 | COc1cc(-c2c(C)c3cccc4c3n2CC(CCC(=O)N2CCN(c3cc(C)ccn3)CC2)O4)ccc1O (stereo not shown) [Example 38] | 100 | 97
6 | Cc1ccnc(N2CCN(CCCC3Cn4c(-c5ccc(O)cc5)c(C)c5cccc(c54)O3)CC2)c1 (stereo not shown) [Example 16] | 57 | 60
7 | Cc1ccnc(N2CCN(C(=O)CCC3Cn4c(-c5ccc(O)c(O)c5)c(C)c5cccc(c54)O3)CC2)c1 (stereo not shown) [Example 49] | 99 | 88

More lines, main results first:

Row | inhibition at 10 µM (5-lipoxygenase [1]) [%] | SMILES | In vitro inhibitory activity on LTB4 formation in rat PMNs stimulated by calcium ionophore A23187 (5-lipoxygenase [2]) [%]
8 | 95 | Cc1ccnc(N2CCN(CCCC3Cn4c(-c5cc(C)c(O)c(C)c5)c(C)c5cccc(c54)O3)CC2)c1 (stereo not shown) [Example 11] | –
9 | 70 | Cc1cc(-c2c(C)c3cccc4c3n2CC(CCN2CCN(c3ccccn3)CC2)O4)cc(C)c1O (stereo not shown) [Example 59] | –
10 | 55 | COc1cc(-c2c(C)c3cccc4c3n2CC(CCN2CCN(c3ncccc3C)CC2)O4)ccc1O (stereo not shown) [Example 35] | 79
11 | 77 | Cc1ccc(N2CCN(CCC3Cn4c(-c5cc(C)c(O)c(C)c5)c(C)c5cccc(c54)O3)CC2)nc1 (stereo not shown) [Example 62] | 56
